From patent US20240199604A1, “SUPRAMOLECULAR POLYMER THERAPEUTICS AND DIAGNOSTICS” (The Regents of the University of California, priority 2022, published 2024)

molecular target: T1, α-synuclein fibrils isolated from an MSA patient sample (Homo sapiens, UniProt P37840); assay: Cryo-EM co-structure with α-synuclein fibrils from MSA patient samples; format: binding; details: fibrils from MSA patient sample, cryoelectronic microscopy
T1 construct: fresh-frozen tissue from the cerebellum of patients clinically and neuropathologically diagnosed with MSA; from tissue; host or cells: cerebellum of MSA patients (sarkosyl-insoluble fraction)
Protocol: MSA filament purification. Filament purification was based on Schweigenhauser et al., 2020^2. Briefly, 1-2 g of fresh-frozen tissue from the cerebellum of patients clinically and neuropathologically diagnosed with MSA was homogenized at 20 mL/g of tissue in 10 mM Tris-HCl (pH 7.4), 800 mM NaCl, 1 mM EGTA, and 10% sucrose. A final concentration of 1% N-laurosarcosinate (w/v) was added to the homogenates, and these mixtures were incubated at 37° C. for 30 minutes. Homogenates were then centrifuged at 10,000 g for 10 minutes, and the supernatant was kept and then centrifuged at 100,000 g for 20 minutes. The pellets were resuspended at 500 μL/g of frozen tissue in 10 mM Tris-HCl (pH 7.4), 800 mM NaCl, 1 mM EGTA, and 10% sucrose. This was followed by another centrifugation at 3,000 g for 5 minutes. The supernatant was kept and diluted threefold with 50 mM Tris-HCl (pH 7.4), 150 mM NaCl, 10% sucrose, and 2% sarkosyl, followed by another centrifugation at 150,000 g for 1 hour. The final pellet resuspended in 30 mM Tris-HCl (pH 7.4) at a concentration of […] frozen tissue.
Cryo-EM sample preparation and data collection. Purified frontal cortex and cerebellum tissue was incubated with 20 μM ligand for 45 minutes prior to freezing. For the tau PHF, 3 μL of purified filaments mixed with GTP-1 was added to a glow-discharged 200 mesh 1.2/1.3R Au Quantifoil grid for 10 seconds before blotting for 2 seconds, and then a second 3 μL aliquot was added for 3 seconds and blotted for 1 second before being plunge frozen in liquid ethane using a FEI Vitrobot Mark IV (Thermo Fisher Scientific). For the synuclein ligands, 3 μL of purified filaments mixed with compound was added to a 200 mesh 1.2/1.3R Au Quantifoil grid coated with a 2 nm thick layer of carbon, which had not been glow discharged. After 30 seconds, grids were blotted for 7.5 seconds at room temperature and 100% humidity. Grids were plunge frozen in liquid ethane using a FEI Vitrobot Mark IV. […] A defocus range of 0.8 to 1.8 μm was used with a total exposure time of 2.024 seconds fractionated into 0.025 seconds subframes. The total dose for each movie was 46 electrons/Å^2. Movies were motion-corrected using MotionCor2^3 in Scipion^4 and were Fourier cropped by a factor of 2 to a final pixel size of 0.834 Å per pixel.
Image processing. All image processing was done in RELION 4^5, and the same workflow was used for each dataset. Dose-weighted summed micrographs were imported into RELION 4. The contrast transfer function was estimated using CTFFIND-4.1^6. Filaments were manually picked and then segments were extracted with a box size of 900 pixels downscaled to 300 pixels. Contaminants and segments contributing to straight filaments were separated out using reference-free 2D class averaging. The remaining segments were re-extracted with a box size of 288 pixels without downscaling. An initial model was generated from a cylinder in RELION. One or more rounds of 3D classification with image alignment were performed, with helical rise and […] parameters fixed to eliminate obvious junk particles. One or more rounds of 3D auto-refinement was run using the best map from 3D classification low-pass filtered to 10 Å, allowing rise and twist parameters to vary. Maps were sharpened using the standard post-processing procedures in RELION.
Model building, refinement, and analysis. Prior to ligand placement, a single strand of a previously solved MSA or tau PHF filament stutr^2 (PDB: 6XYQ) was refined against the density using Phenix^7. Refinement of the ligand binding pocket was done in COOT^8. Ligands were placed by hand in the density using Chimera^9. This model was then translated to give a stack spanning 5 rungs.

SMILES | co-structure of supramolecular polymeric inhibitor with α-synuclein fibrils
CNC(=O)c1ncc2c(-c3ccnc(C(C)(F)F)n3)nn(-c3ccc(Cl)cc3)c2n1 [Compound 22, 1-(4-chlorophenyl)-3-(2-(1,1-difluoroethyl)pyrimidin-4-yl)-N-methyl-1H-pyrazolo[3,4-d]pyrimidine-6-carboxamide] | bound to fibrils isolated from an MSA patient sample
CNc1nc(=O)n(-c2nc(-c3cccc(C)c3)oc2-c2ccc(Cl)c(F)c2)cc1F [Compound 83, 1-(5-(4-chloro-3-fluorophenyl)-2-(m-tolyl)oxazol-4-yl)-5-fluoro-4-(methylamino)pyrimidin-2 (1H)-one] | bound to fibrils isolated from an MSA patient sample
CNc1nc(=O)n(-c2nc(-c3cccc(Cl)c3)oc2-c2ccc(Cl)c(F)c2)cc1F [Compound 125, 1-(5-(4-chloro-3-fluorophenyl)-2-(3-chlorophenyl)oxazol-4-yl)-5-fluoro-4-(methylamino)pyrimidin-2 (1H)-one] | bound to fibrils isolated from an MSA patient sample
O=C(Cn1cc(-c2ccoc2)c(=O)c2ccc(N3CCCC3)cc21)Nc1ccccc1C(F)(F)F [Compound 149, 2-[3-(furan-3-yl)-4-oxo-7-(pyrrolidin-1-yl)-1,4-dihydroquinolin-1-yl]-N-[2-(trifluoromethyl)phenyl]acetamide] | bound to fibrils isolated from an MSA patient sample
O=c1nc2c(ccn2C(F)(F)F)cn1-c1nc(-c2ccnc(C3CC3)n2)oc1-c1ccc(F)cc1 [compound 293] | bound to fibrils isolated from an MSA patient sample
CNc1nc(=O)n(-c2nc(-c3cc(C)cc(C)n3)oc2-c2ccc(F)c(F)c2)cc1F [compound 294] | bound to fibrils isolated from an MSA patient sample
Cc1nccc2cc(-c3nc(-n4ccc5cccnc5c4=O)c(-c4ccc(C(F)(F)F)cc4)o3)ccc12 [compound 427] | bound to fibrils isolated from an MSA patient sample

same assay, conditions: α-synuclein fibril from an MSA patient, SEQ ID NO: 9

binding site on α-synuclein fibril | SMILES
bound to residues 86-99 | CNC(=O)c1ncc2c(-c3ccnc(C(C)(F)F)n3)nn(-c3ccc(Cl)cc3)c2n1 [Compound 22, 1-(4-chlorophenyl)-3-(2-(1,1-difluoroethyl)pyrimidin-4-yl)-N-methyl-1H-pyrazolo[3,4-d]pyrimidine-6-carboxamide]

tested on: tau paired-helical filaments (PHFs); assay: Cryo-EM co-structure with Alzheimer's disease tau paired helical filaments; format: binding, human; details: AD tau PHF incubated with 20 uM GTP-1, cryo-EM
Protocol: Samples were incubated with 20 uM GTP-1 prior to vitrification. […] The micrograph images and their 2D classification reveal well-resolved filaments primarily in the PHF conformation, with crossover distances ranging from 700-800 Å. A minor population of straight filaments (SF) was also identified; however, further structural characterization was not feasible due to limited abundance. […] The PHF structure is comprised of two protofilaments related by two-fold symmetry with a 2.37 Å rise and 179.450 twist, consistent with previously reported structures of PHFs prepared from AD brains (13, 15). […]
Cryo-EM sample preparation and data collection. […] For the tau PHF, 3 μL of purified filaments mixed with GTP-1 was added to a glow-discharged 200 mesh 1.2/1.3R Au Quantifoil grid for 10 seconds before blotting for 2 seconds, and then a second 3 μL aliquot was added for 3 seconds and blotted for 1 second before being plunge frozen in liquid ethane using a FEI Vitrobot Mark IV (Thermo Fisher Scientific). For the synuclein ligands, 3 μL of purified filaments mixed with compound was added to a 200 mesh 1.2/1.3R Au Quantifoil grid coated with a 2 nm thick layer of carbon, which had not been glow discharged. […]

SMILES | binding site on tau filament
[2H]C([2H])([18F])CC1CCN(c2ccn3c(n2)nc2ccccc23)CC1 [GTP-1] | bound to a solvent exposed cleft (residues 351-360)
